Source: the NIST ThermoML archive (doi:10.1016/j.jct.2018.07.013)

Experiments:
[1] = 298.15 K, 100 kPa, Liquid; for speed of sound: Frequency=3 MHz, Single path-length method; for mass density: Vibrating tube method
[2] = xn = mol fraction of the nth substance listed; conditions: 298.15 K, 100 kPa, Liquid; for speed of sound: Frequency=3 MHz, Single path-length method; for mass density: Vibrating tube method
[3] = excess molar enthalpy (molar enthalpy of mixing); xn = mol fraction of the nth substance listed; conditions: 298.15 K, 100 kPa, Liquid, Power-compensation calorimetry

CO [methanol]
[1]
Conditions | mass density [kg/m3] | speed of sound [m/s]
– | 786.53 | 1104

CO [methanol] + CCOC(=O)C(C)O
[2], x2 = 0
Conditions | mass density [kg/m3] | speed of sound [m/s]
– | 786.53 | 1104

CO [methanol] + COC(=O)C(C)O
[2], x2 = 0
Conditions | mass density [kg/m3] | speed of sound [m/s]
– | 786.53 | 1104

COC(=O)C(C)O (stereo not drawn) [methyl 2-hydroxypropanoate]
[1]
Conditions | mass density [kg/m3] | speed of sound [m/s]
– | 1087.35 | 1339.3

COC(=O)C(C)O (stereo not drawn) [methyl 2-hydroxypropanoate] + CCCCO
Conditions | excess molar enthalpy, [3] [kcal/mol] | mass density, [2] [kg/m3] | speed of sound, [2] [m/s]
x1 = 0.054 | 0.0531 | – | –
x1 = 0.0589 | – | 822.83 | 1242.8
x1 = 0.1088 | – | 837.09 | 1245.1
x1 = 0.132 | 0.109 | – | –
x1 = 0.174 | 0.138 | – | –
x1 = 0.1905 | – | 860.37 | 1249.8
x1 = 0.287 | 0.186 | – | –
x1 = 0.2973 | – | 890.71 | 1257.2
x1 = 0.384 | 0.204 | – | –
x1 = 0.3887 | – | 916.62 | 1265
x1 = 0.487 | 0.207 | – | –
x1 = 0.4999 | – | 948.04 | 1275.8
x1 = 0.552 | 0.2 | – | –
x1 = 0.5977 | – | 975.58 | 1286.4
x1 = 0.6976 | – | 1003.57 | 1298.3
x1 = 0.705 | 0.16 | – | –
x1 = 0.75 | 0.136 | – | –
x1 = 0.7926 | – | 1030.02 | 1310.6
x1 = 0.864 | 0.0767 | – | –
x1 = 0.9107 | – | 1062.72 | 1326.6
x1 = 0.934 | 0.039 | – | –
x1 = 0.9577 | – | 1075.69 | 1333.2
x1 = 1 | – | 1087.35 | 1339.3

COC(=O)C(C)O (stereo not drawn) [methyl 2-hydroxypropanoate] + CCCO
Conditions | excess molar enthalpy, [3] [kcal/mol] | mass density, [2] [kg/m3] | speed of sound, [2] [m/s]
x1 = 0.045 | – | 815.93 | 1211.5
x1 = 0.05 | 0.0457 | – | –
x1 = 0.1025 | – | 836.2 | 1218.9
x1 = 0.104 | 0.0832 | – | –
x1 = 0.2047 | – | 870.81 | 1232.5
x1 = 0.207 | 0.134 | – | –
x1 = 0.3 | – | 901.52 | 1245.4
x1 = 0.309 | 0.162 | – | –
x1 = 0.4004 | – | 932.31 | 1259.8
x1 = 0.411 | 0.172 | – | –
x1 = 0.501 | 0.17 | – | –
x1 = 0.5012 | – | 961.71 | 1274.1
x1 = 0.5911 | – | 986.71 | 1286.9
x1 = 0.607 | 0.157 | – | –
x1 = 0.6935 | – | 1013.88 | 1300.8
x1 = 0.707 | 0.133 | – | –
x1 = 0.7978 | – | 1040.2 | 1315.1
x1 = 0.802 | 0.101 | – | –
x1 = 0.9 | – | 1064.67 | 1327.6
x1 = 0.902 | 0.0531 | – | –
x1 = 0.945 | – | 1075.04 | 1333.1
x1 = 0.95 | 0.0258 | – | –
x1 = 1 | – | 1087.35 | 1339.3
